# Several values for one entry are separate records, joined by “and”; a condition that tells them apart may be missing. Identical values can stand only once. Entries after “also recorded” stand apart in the source; their conditions may differ. Counter-ions that a name gives are not always drawn. Like-named read-outs stand apart in the source and are kept apart here.
# How the values were obtained:
# pKa determination = type: physicochemical; conditions: read-out: pKa value (guanidino/amidino moiety)
# Experimental: The mixture was heated to 60° C. and maintained at this temperature until evolution of gas ceased. The solution was cooled on ice until crystals were formed. Following the filtration, the crystals were dissolved in a minimum of distilled water and were recrystallized three times from water. Purity of GES was confirmed by proton NMR spectroscopy at 500 MHz (GE Omega-500). The pKa value of the amino moiety of GES was determined to be 12.48
# GES was prepared as described above. Taurine and methyl isothiopseudourea were purchased from Sigma (St. Louis, Mo.). […] The mixture was heated to 60° C. and maintained at this temperature until evolution of gas ceased. The solution was cooled on ice to crystalize GES, and filtered. The crystals were dissolved in a minimal amount of distilled water and then recrystallized three times from water. The purity of GES was confirmed by proton NMR spectroscopy at 500 MHz (GE Omega-500). The pKa value of the amidino moiety of GES was determined to be 12.48.
# anaerobic glycolysis = test: brain lactate after 2.5 min anoxia; type: in vivo, Adult Swiss mice
# Experimental: (§1) Adult Swiss mice (BK-1 male 20 g) purchased from Bantin & Kingman, Fremont, Calif., were used. Each batch consisted of 15 mice. Within each batch, five mice were selected randomly to be in the GES, taurine, or control group. A taurine group was included to serve as additional control.
# Brain lactate levels were determined for mice exposed to 2.5 minutes of anoxia as follows. Animals were exposed to 2.5 minutes of anoxia under pentobarbital anesthesia. Immediately after the exposure, animals were immersed into a liquid nitrogen. The frozen brains were removed by chiseling and extracted as described above. Lactate concentration was determined using the lactate dehydrogenase reaction.
# mouse brain = mouse brain intracellular pH pre- and post-anoxia (Example 7, 31P NMR); type: in vivo, Adult Swiss mice; conditions: FIG. 12, sulfate
# Experimental: as §1
# A GE Omega CSI-7T (clear bore 120 mm, horizontal, 7T) was used. Mice were anesthetized with pentobarbital, 50 mg/kg, intraperitoneally. Mice were held in a padded holder which was placed in the probe chamber containing a one turn round surface coil (5 mm diameter) tunable to the resonance frequency of proton and ^31 P. To avoid signal contamination, the scalp and temporal muscle were retracted. The animal body temperature was kept at 37° C. using a non-magnetic heating pad. Field homogeneity was maximized by skimming on tissue water proton signals. ^31 P spectra were obtained using a one pulse sequence at 121.67 MHz with a spectral width of 10K and stored into 4K memory blocks (recycle time 1.2 sec). Every 100 transients (2 minutes) were blocked. In order to obtain higher accuracy, preanoxia steady state pH was determined using block average files of three blocks (300 transients, 6 minutes). Anoxia was then introduced by infusion of 100% N2 into the chamber (14 L/min). The first blocks (100 transients, 2 minutes) immediately after N2 introduction were utilized for post anoxia pH measurement. […]
# gerbil brain = test: intracellular pH of gerbil brain (31P NMR); type: in vivo; conditions: mean and standard deviation; p<0.05 (t-test) vs saline 7.17; sulfate
# Experimental: Intracellular pH measurement of gerbil brain was performed non-invasively using ^31 P nuclear magnetic resonance (NMR) in vivo spectroscopy. AGE Omega CSI-7T (useful bore 120 mm, horizontal, 7T) was used.
# Gerbils were divided into […] of 7 animals each. Control group received saline. Saline ischemia group received saline. GES group received GES. Gerbils were anesthetized with pentobarbital, 50 mg/kg. Gerbils were held in a padded holder which was placed in the probe chamber containing a one turn round surface coil (5 mm diameter) tunable to the resonance frequency of proton and ^31 P. To avoid signal contamination, the scalp and temporal muscle were retracted. The body temperature was kept at 37° C. using a non-magnetic heating pad. Field homogeneity was maximized by skimming on tissue water proton signals. ^31 P spectra were obtained using a one pulse sequence at 121.67 MHz with a spectral width of 10K and stored into 4K memory blocks (recycle time 2.7 sec). The broad resonance with short T2 on ^31 P spectra was removed by the convolution difference technique. Line broadening of 30 Hz was applied as noise filter.
# [1] = charge state in brain cytosol from pKa; conditions: sulfate
# Excerpt: (Soc. Neurosci., 21 Annual Meeting, Abstract, 1078, Oct. 5, 1992). Entry of GES across the blood-brain barrier (BBB) is likely to be in the uncharged form. Following free diffusion into the cytosol, the ratio between uncharged and charged forms will equilibrate according to cytosolic pH and the pKa value of GES.
# Following free diffusion into cytosol, the ratio between charged (RH3^+) and uncharged forms will equilibrate according to cytosolic pH and their respective pKa values.
# [2] = in vivo, sulfate, cited from earlier work
# [3] = parameters: species or system Adult Swiss mice; conditions: mouse, in vivo
# Experimental: as §1
# Arterial blood gas sample was collected by puncture of the lower portion of the descending aorta under pentobarbital anesthesia. Analysis was performed on a Corning 168 Blood Gas Analyzer.
structure (smiles),measurement,setting,value
"N=C(N)NCCS(=O)(=O)O [GES, guanidinoethane sulfate]",pKa,pKa determination,12.5
same,Lactate,"anaerobic glycolysis; Table 4, n = 5, post 2.5 min anoxia",0.50 ± 0.07 mM
same,lactate levels post 2.5 min anoxia (in words),anaerobic glycolysis; among three groups,essentially identical among the three groups
same,"brain intracellular pH, pre-anoxia (in words)","mouse brain; 625 mg/kg i.p., two weeks, 625 mg/kg","detectable shift in intracellular pH, to a more alkaline level; also recorded: clear alkali shift; also recorded: significantly increased brain intracellular pH (alkaline shift)"
same,"brain intracellular pH, post-anoxia (in words)",mouse brain,"alkali shift is maintained following 12 minutes of post anoxia; also recorded: remained higher, retaining the degree of alkaline shift"
same,intracellular pH of gerbil brain,gerbil brain,7.26 and 7.25±0.07 and 7.25
same,charge state in brain cytosol (in words),[1],virtually all GES in brain cytosol is in the charged form
same,blood-brain barrier crossing (in words),[2]; listed as Guanidinoethanesulfonic acid,ability to cross the blood-brain barrier
same,blood-brain barrier crossing (in words),[2],crosses the blood brain barrier in the uncharged form
same,arterial blood gas parameters including pH (in words),[3],remained essentially unchanged
same,arterial pCO2,[3],41.0 ± 5.49 mmHg
same,arterial pH,[3],7.29 ± 0.03
same,arterial pO2,[3],98.0 ± 5.8 mmHg

# From patent publication US5723496A, “Method for prevention and treatment of harmful effects of intracellular acidosis” (priority 1995, dated 1998)
